Like-named read-outs stand apart in the source and are kept apart here.

The subject of data set [1] is NMRI male mice. Nature of the data set: Hot plate test in mice. The format is in vivo. The settings on record: sc. The protocol:
Hot plate test in mice Method
A modification of method of Eddy et al. (1953) Eddy, N. B., Leimback D.: Synthetic analgesics II. Dithienylbutenyl and dithienylbutylamines. J. Pharmacol. Exp. Ther. 107 /1953/, 385 to 393 was used. NMRI male mice (20 to 25 g body weight) were dropped on a hot plate (56.0 ± 0.5°C) and the latency time elapsed until licking the forepaws was measured. The compounds were administered subcutaneously and 15, 30, 45 and 60 minutes later the reaction time was measured again. Animals were regarded as positive if they produced at least twice 2.5-fold reaction time extension as related to their control values.
(Thermal pain tests record how soon the animal reacts.)

The test system of data set [2] is mice. Briefly: Acetic acid induced writhing test in mice. It counts as in vivo. The protocol: Acetic acid induced writhing test in mice Method
Groups of 12 mice weighing 20 to 25 g were treated with 0.75% (v/v) acetic acid in a volume of 20 ml/kg administered intraperitoneally according to the method of Koster, R., Anderson, M., de Beer, E. J.: Acetic acid for analgesic screening, Fed. Proc. 18 [1959], 412. Between 5 and 10 minutes after the administration of acetic acid the total number of the typical "writhing" reactions was counted and expressed as percent inhibition compared to the concurrent controls. The test compounds were applied subcutaneously partly with a pretreatment period of 30 min. and partly without such. Statistical evaluation was performed by Student's t test and ID₅₀ values were determined by plotting the log-dose versus percentage response as compared to vehicle-treated animals. 10 mg/kg s.c. 17-(allyl)-4,5α-(epoxy)-3,14-di-(hydroxy)-morphinan-6-one {Naloxone} was administered 15 minutes before drug treatment.
(In general: An intraperitoneal irritant provokes the stretching counted in writhing tests.)

Data set [3] deals with mice. The settings on record: mouse, in vivo, sc, 5 mg/kg.
[4] abbreviates: Mus musculus, hot plate 56.0 ± 0.5°C, subcutaneous, reaction time at 15, 30, 45 and 60 minutes, positive = at least twice 2.5-fold reaction time extension, read-out: ED50.

Regarding `Clc1ccc([C@H]2C[C@H]3CC[C@@H]2N3)cn1` (racemic) [Example 6, Epi-epibatidine], in data set [1] (mouse, in vivo), the ED50 came out at 0.7 mg/kg s.c; the “analgesic potency, times stronger than that of codeine” value is on record as 13 times; the “analgesic potency, times stronger than that of morphine” value is given as 4 times. Besides, in data set [2] (mouse, in vivo), the “ID50 Pretreatment with 10 mg/kg naloxone s.c.” value (from here on “ID50 Pretreatment”) came out at 3.2 mg/kg s.c, the “ID50 Without pretreatment” value was 2.6 mg/kg s.c and the “antagonism of the antinociception by naloxone” value was “inactive”. For the same molecule, the lethality in mice result in data set [3] is given as “does not destroy mice”.

As to `Fc1ccc([C@H]2C[C@H]3CC[C@@H]2N3)cc1` (racemic) [Example 12, (±)-endo-2β-[1'-(Fluoro)-phen-4'-yl]-7α-azabicyclo[2.2.1]heptane], the ED50 in data set [1] (setting [4]) worked out at 2.1 mg/kg.

As to `Clc1ccc([C@H]2C[C@H]3CC[C@@H]2N3)cc1` (racemic) [Example 19, (±)-endo-2β-[1'-(Chloro)-phen-4'-yl]-7α-azabicyclo[2.2.1]heptane], the ED50 in data set [1] (setting [4]) came out at 6.3 mg/kg.

As for `COc1ccc([C@H]2C[C@H]3CC[C@@H]2N3)cn1` (racemic) [Example 26, (±)-endo-2β-[6'-(Methoxy)-pyrid-3'-yl]-7α-azabicyclo[2.2.1]heptane], the ED50 in data set [1] (setting [4]) came out at 3.1 mg/kg.

For the molecule `c1cncc([C@H]2C[C@H]3CC[C@@H]2N3)c1` (racemic) [Example 33, (±)-endo-2β-[Pyrid-3'-yl]-7α-azabicyclo[2.2.1]heptane], in data set [1] (setting [4]), the ED50 is around 10 mg/kg.

As for `Clc1ccc([C@H]2C[C@H]3CC[C@@H]2N3)c(Cl)c1` (racemic) [Example 42, (±)-endo-2β-[1',3'-Di-(chloro)-phen-4'-yl]-7α-azabicyclo[2.2.1]heptane], in data set [1] (setting [4]), the ED50 came out at 1.8 mg/kg.

On to `COc1ccc([C@H]2C[C@H]3CC[C@@H]2N3)c(OC)c1` (racemic) [Example 48, (±)-endo-2β-[1',3'-Di-(methoxy)-phen-4'-yl]-7α-azabicyclo[2.2.1]heptane], for which the ED50 in data set [1] (setting [4]) stood at 2.9 mg/kg.

As for `CCOc1ccc([C@H]2C[C@H]3CC[C@@H]2N3)cn1` (racemic) [Example 49, (±)-2β-[6'-(Ethoxy)-pyrid-3'-yl]-7α-azabicyclo[2.2.1]heptane], the ED50 in data set [1] (setting [4]) came out at 3.5 mg/kg.

For the molecule `CN1CC[C@]23c4c5ccc(O)c4O[C@H]2[C@@H](O)C=C[C@H]3[C@H]1C5.Cl` [Reference substance A, Morphine-HCl], in data set [2] (mouse, in vivo), the “ID50 Pretreatment” value came out at 46.8 mg/kg s.c, the “ID50 Without pretreatment” value came out at 0.6 mg/kg s.c and the “increase of ID50 value in antinociception after naloxone pretreatment” value is reported as “about 80 fold”.

Regarding `COc1ccc2c3c1O[C@H]1[C@@H](O)C=C[C@H]4[C@@H](C2)N(C)CC[C@@]341.Cl` [Reference substance B, Codeine-HCl], the ED50 came out at 9.4 mg/kg in data set [1] (setting [4]); 9.9 mg/kg in data set [2] (Mus musculus, sc, 0.75% (v/v) acetic acid i.p., writhing counted between 5 and 10 minutes, no naloxone, read-out: ID50 Without pretreatment). The “ID50 Pretreatment” value in data set [2] (0.75% (v/v) acetic acid i.p., naloxone 10 mg/kg s.c. 15 minutes before drug treatment) was determined as 45.4 mg/kg s.c. In data set [2] (naloxone 10 mg/kg s.c. for 15 minutes), the “increase of ID50 value in antinociception after naloxone pretreatment” value is listed as around 5 fold.

These data come from patent EP0657455A1, “Epi-epibatidine derivatives, a process and intermediates for preparing them and epi-epibatidine and medicaments containing the epi-epibatidine derivatives and/or epi-epibatidine and the use of them” (priority 1993, dated 1995).
